Measured values from US20200031811A1, “SUBSTITUTED MONO- AND POLYAZANAPHTHALENE DERIVATIVES AND THEIR USE” (Basilea Pharmaceutica International AG, priority 2015, published 2020).

How the values were obtained:
MNK1 = target: T1, MNK1 (Homo sapiens, UniProt Q9BUB5); assay: MNK inhibition assay (Z-Lyte kinase assay, Ser/Thr 7 peptide); type: biochemical; settings: for IC50: recombinant GST-MNK1, 3 hours at 31° C.
T1 construct: purchased Life Technologies or Carna Biosciences PV6023 or 02-145; host or cells: baculovirus infected insect cells
T1 sequence (Q9BUB5 whole entry): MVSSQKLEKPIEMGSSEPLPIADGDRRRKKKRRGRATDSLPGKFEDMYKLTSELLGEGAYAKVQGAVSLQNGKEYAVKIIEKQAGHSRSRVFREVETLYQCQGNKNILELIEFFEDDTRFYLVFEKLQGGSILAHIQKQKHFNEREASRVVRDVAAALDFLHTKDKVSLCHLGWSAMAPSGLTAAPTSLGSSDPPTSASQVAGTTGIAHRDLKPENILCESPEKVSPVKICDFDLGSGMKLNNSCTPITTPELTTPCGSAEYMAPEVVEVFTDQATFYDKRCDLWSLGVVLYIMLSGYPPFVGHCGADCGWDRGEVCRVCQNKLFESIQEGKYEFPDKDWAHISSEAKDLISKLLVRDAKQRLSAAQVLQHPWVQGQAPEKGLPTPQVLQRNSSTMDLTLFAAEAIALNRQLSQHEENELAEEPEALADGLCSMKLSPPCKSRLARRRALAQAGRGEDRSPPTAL
Procedure, shortened: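 Recombinant GST-MNK1 from baculovirus-infected insect cells, Z-Lyte Ser/Thr 7 peptide, enzyme set for ~30% phosphorylation in buffer-only wells; 3 hours at 31° C. Compounds at 50–10000 nM (potent ones down to 0.5 nM), at least duplicate. IC50 from % substrate phosphorylation versus buffer-only wells, fluorescence read-out.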

[1] = test system: human pancreatic cancer cell line MiaPaCa2 (ATCC CRL-1420); assay: Cell growth assay (CellTiterGlo, 72 hours); type: cell-based; settings: for inhibition at 100 µM: MIA PaCa-2, at 100 μM; for inhibition at 100 µM / inhibition at 50 µM: read-out: Inhibition of MiaPaCa growth at indicated concentration; for IC50: MIA PaCa-2, MiaPaCa2 cells, 72 hours, read-out: IC50 MiaPaCa; for inhibition at 50 µM: MIA PaCa-2, at 50 μM
Procedure, shortened: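 MiaPaCa2 cells (10^3/well) seeded in supplemented DMEM overnight, then exposed in quadruplicate to compound at 100 down to 0.1 μM for 72 h at 37° C. Growth read by CellTiterGlo luminescence, medium-only background subtracted, normalised to untreated cells; IC50 = concentration reducing growth to 50%.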

Row | IC50 (MNK1) | IC50 [1] | SMILES | other results
1 | 0.603 µM | – | NC1CCN(Cc2ccc3cncc(-c4ccc(NC(=O)Nc5cccnc5)cc4)c3c2)CC1 [Example 117] | inhibition at 100 µM [1]: 34%
2 | 0.056 µM | 7.5 µM | Cc1ccc(-c2cncc3ccc(CNc4ccnc5ccccc45)cc23)o1 [Example 209] | –
3 | 0.054 µM | 3.99 µM | Nc1ncc2ccc(CNc3ccnc4ccccc34)cc2c1-c1cc2ccccc2o1 [Example 261, 4-(Benzofuran-2-yl)-6-[(4-quinolylamino)methyl]isoquinolin-3-amine] | –
4 | 1.55 µM | 26 µM | Nc1ccc2c(ccn2Cc2ccc3cncc(-c4cc5ccccc5o4)c3c2)c1 [Example 192, 1-[[4-(Benzofuran-2-yl)-6-isoquinolyl]methyl]indol-5-amine] | –
5 | 0.135 µM | 2.37 µM | N[C@H]1CC[C@H](Oc2cc(Cl)c3cncc(-c4cc5ccccc5o4)c3c2)CC1 [Example 310] | –
6 | 0.237 µM | – | NC1CCN(Cc2ccc3cncc(-c4ccccc4)c3n2)CC1 [Example 299, 1-[(8-Phenyl-1,6-naphthyridin-2-yl)methyl]piperidin-4-amine] | inhibition at 100 µM [1]: 85%
7 | – | – | COC(=O)c1cccc(-c2cncc3ccc(CN4CCC(N)CC4)cc23)c1 [Example 12] | inhibition at 10 µM (MNK1; at 10 μM, read-out: Inhibition of MNK1 activity at indicated concentration): 92%; inhibition at 100 µM [1]: 60%
8 | 2.72 µM | 29 µM | NC1CCN(Cc2ccc3nncc(-c4ccc(Cl)cc4)c3c2)CC1 [Example 145, 1-[[4-(4-Chlorophenyl)cinnolin-6-yl]methyl]piperidin-4-amine] | –
9 | 0.142 µM | 13.8 µM | Nc1ncc2ccc(CN3CCC(N)CC3)cc2c1-c1ccc(O)cc1 [Example 163] | –
10 | 0.361 µM | 2.6 µM | NC1CCN(Cc2ccc3cncc(-c4cc5ccccc5s4)c3c2)CC1 [Example 170] | –
11 | 0.882 µM | 11.1 µM | COc1cccc(-c2cncc3ccc(CN4CCC(N)CC4)cc23)c1 [Example 198] | –
12 | 0.187 µM | 2.26 µM | COc1cc2cncc(-c3cc4ccccc4o3)c2cc1N[C@H]1CC[C@H](N)CC1 [Example 141, N4-[4-(Benzofuran-2-yl)-7-methoxy-6-isoquinolyl]cyclohexane-1,4-diamine] | –
13 | 1.15 µM | 25 µM | Nc1cccc(NCc2ccc3cncc(-c4cc5ccccc5o4)c3c2)c1 [Example 48] | –
14 | 1.15 µM | 8.32 µM | NCCCOCc1ccc2c(N)ncc(-c3ccc(Cl)c(Cl)c3)c2c1 [Example 111] | –
15 | 0.021 µM | 0.58 µM | Nc1cc(NCc2ccc3cncc(-c4cc5ccccc5o4)c3c2)ccn1 [Example 130, N4-[[4-(Benzofuran-2-yl)-6-isoquinolyl]methyl]pyridine-2,4-diamine] | –
16 | 0.219 µM | 32.2 µM | CN(C)CCCNCc1ccc2cncc(-c3ccc(O)cc3)c2c1 [Example 43, 4-[6-[[3-(Dimethylamino)propylamino]methyl]-4-isoquinolyl]phenol] | –
17 | 0.022 µM | 1.76 µM | CN(c1ccc2cncc(-c3cc4ccccc4o3)c2c1)C1CCC(N)CC1 (stereo not drawn) [Example 210] | –
18 | 0.75 µM | 2.55 µM | CC(C)Oc1cc(CN2CCC(N)CC2)cc2c(-c3cc4ccccc4o3)cncc12 [Example 283, 1-[[4-(benzofuran-2-yl)-8-isopropoxy-6-isoquinolyl]methyl]piperidin-4-amine] | –
19 | 1.09 µM | 3.25 µM | Nc1cc(Nc2ccc3cncc(-c4cc5ccccc5o4)c3c2)ccn1 [Example 137, N4-[4-(Benzofuran-2-yl)-6-isoquinolyl]pyridine-2,4-diamine] | –
20 | 0.088 µM | 4.12 µM | NCCCNC(=O)c1ccc2cncc(-c3cc4ccccc4o3)c2n1 [Example 103, N-(3-aminopropyl)-8-(benzofuran-2-yl)-1,6-naphthyridine-2-carboxamide] | –
21 | 0.064 µM | 4.94 µM | NC1CCN(Cc2cc3c(-c4cc5ccccc5o4)cncc3cc2Cl)CC1 [Example 250] | –

Row | IC50 (MNK1) | IC50 [1] | SMILES | other results
22 | 0.276 µM | 4.97 µM | NC1CCN(Cc2ccc3cncc(-c4ccoc4)c3c2)CC1 [Example 179] | –
23 | 0.213 µM | 10.4 µM | NC1CCN(Cc2cc(Cl)c3cncc(-c4ccccc4)c3c2)CC1 [Example 241] | –
24 | 0.336 µM | – | NC1CCC(NCc2ccc3cncc(-c4ccc(O)cc4)c3c2)CC1 (stereo not drawn) [Example 37] | inhibition at 50 µM [1]: 57%
25 | 0.165 µM | 21.8 µM | Nc1cc[n+](Cc2ccc3cncc(-c4ccccc4)c3c2)cc1 [Example 121, 1-[(4-Phenyl-6-isoquinolyl)methyl]pyridin-1-ium-4-amine] | –
26 | 2.08 µM | 14.5 µM | NC1CCCN(Cc2ccc3cncc(-c4cc5ccccc5o4)c3c2)C1 (stereo not drawn) [Example 293] | –
27 | 0.418 µM | 1.7 µM | c1ccc2oc(-c3cncc4ccc(NC5CCCNC5)cc34)cc2c1 (stereo not drawn) [Example 212] | –
28 | 0.152 µM | 11.5 µM | NCc1ccc(Nc2ccc3cncc(-c4cc5ccccc5o4)c3c2)cc1 [Example 133] | –
29 | 1.12 µM | 21 µM | NCCCOCc1ccc2cncc(-c3ccc(Cl)c(Cl)c3)c2c1 [Example 107] | –
30 | 0.744 µM | 17.5 µM | NC1CCN(Cc2ccc3cncc(-c4ccccc4)c3c2)CC1 [Example 7] | –
31 | 0.017 µM | 8.06 µM | N[C@@H]1CCN(Cc2ccc3cncc(-c4cc5ccccc5o4)c3c2)C[C@@H]1F [Example 206] | –
32 | 0.426 µM | 7.8 µM | NC1CCN(Cc2cc(Cl)c3cncc(-c4ccc(Cl)cc4)c3c2)CC1 [Example 237] | –
33 | – | 43.8 µM | NCCCOCc1ccc2c(N)ncc(-c3ccc(NC(=O)Nc4ccccc4)cc3)c2c1 [Example 112, 1-[4-[1-Amino-6-(3-aminopropoxymethyl)-4-isoquinolyl]phenyl]-3-phenyl-urea] | inhibition at 1 µM (MNK1; at 1 μM, read-out: Inhibition of MNK1 activity at indicated concentration): 19%
34 | 0.247 µM | 10.3 µM | NC1CCN(Cc2ccc3cncc(-c4ccc5cc[nH]c5c4)c3c2)CC1 [Example 169] | –
35 | 0.055 µM | 5.57 µM | COc1cc(O[C@H]2CC[C@H](N)CC2)cc2c(-c3ccccc3)cncc12 [Example 316] | –
36 | 3.7 µM | 29 µM | NC1CCN(Cc2ccc3cncc(-c4ccc5ccccc5n4)c3c2)CC1 [Example 176, 1-[[4-(2-Quinolyl)-6-isoquinolyl]methyl]piperidin-4-amine] | –
37 | 0.096 µM | – | c1coc(-c2cncc3ccc(CN4CCNCC4)cc23)c1 [Example 225] | inhibition at 50 µM [1]: 65%
38 | 0.031 µM | 9.52 µM | N[C@H]1CC[C@H](Nc2ccc3cncc(-c4ccccc4)c3n2)CC1 [Example 303, trans-N4-(8-phenyl-1,6-naphthyridin-2-yl)cyclohexane-1,4-diamine] | –
39 | 0.177 µM | 12.1 µM | NC1CCN(Cc2ccc3cncc(-c4ccsc4)c3c2)CC1 [Example 180] | –
40 | 0.0053 µM | 19.2 µM | O=c1cc(NCc2ccc3cncc(-c4cc5ccccc5o4)c3c2)cc[nH]1 [Example 74] | –
41 | 0.171 µM | 1.3 µM | Nc1ncc(-c2ccccc2)c2cc(N[C@H]3CC[C@H](N)CC3)cc(Cl)c12 [Example 312, Trans-N6-(4-aminocyclohexyl)-8-chloro-4-phenyl-isoquinoline-1,6-diamine] | –
42 | 0.934 µM | 13.7 µM | CO[C@H]1CN(Cc2ccc3cncc(-c4cc5ccccc5o4)c3c2)CC[C@H]1N [Example 270, (3S,4R/3R,4S)-1-[[4-(Benzofuran-2-yl)-6-isoquinolyl]methyl]-3-methoxy-piperidin-4-amine] | –
